Reference: patent US20240180930A1, “CARBONIC ANHYDRASE 1 (CA1) INHIBITORS FOR THE TREATMENT OR PREVENTION OF MYELOPROLIFERATIVE DISORDERS AND OTHER HEMATOPOIETIC MALIGNANCIES, AND AS BIOMARKER OF MYELOPROLIFERATIVE DISORDERS AND OTHER HEMATOPOIETIC MALIGNANCIES” (COMMISSARIAT A L'ENERGIE ATOMIQUE ET AUX ENERGIES …, priority 2021, published 2024)

Experiments:
[1] = test system: mice transplanted with JAK2^V617F BM cells; experiment: Single irradiated-leg mouse model of Polycythemia Vera, pharmacologic treatment; type: in vivo
From the text: Mice. The conditional flexed Jak2^V617F KI mice (Hasan et al.; Blood 122, 1464-1477; 2013) were crossed with VavCre transgenic (TG) mice (Croker et al., SOCS3 Is a Critical Physiological Negative Regulator of G-CSF Signaling and Emergency Granulopoiesis. Immunity 20, 153-165 (2004)) to express the mutant Jak2. To easily evaluate allele burden in kinetic experiments, Jak2^V617F KI/VavCre mice were also crossed with UbiGFP TG mice in Gustave Roussy' animal facilities. For one-leg transplantation, F1 crossed B6.SJL/BoyJ (CD45.1)×C57BL/6J (CD45.2) mice were used as recipient mice. All mice were housed in a specific pathogen-free section at an animal facility of CEA/DRF/IBFJ/iRCM according to the institutional guidelines and French Ministry of Agriculture's regulations.
One leg irradiation and transplantation. Recipient mice were anesthetized with ketamine-xylazine and their leg was fixed on a tray with only the leg left towards the opposite side to their body. The tray was put in the radiation field of a GSRD1 radiation equipment. The mouse body was shielded from irradiation with lead plates and the leg was irradiated at 2×5 Gy with an interval of 17 h. Bone marrow (BM) cells (1×10^7) were intravenously transplanted into the irradiated mice 7 hours after the second irradiation. For barcode and shRNA experiments, 10,000 transduced Lin^−Scal^+cKit^+ (LSK) hematopoietic cells were intrafemorally transplanted into irradiated leg under Isoflurane anesthetic.
Blood analysis. Blood was collected and analyzed through a hemocytometer (CD3700, ABBOTT). The rest of blood was subjected to hemolysis by using an ammonium chloride solution ([…]). The hemolyzed blood were stained with antibodies against CD45.1 (A20) and CD45.2 (104) and analyzed through flow cytometry to examine blood chimerism.
BM cells (femur and tibia) of irradiated leg and of non-irradiated leg were harvested by flushing with 1 mL of PBS. After centrifugation, BM supernatants were collected and kept at -80° C. with anti-protease (ROCHE) for chemokine analyses. BM cells were suspended in PBS and splenocytes were also collected in PBS by crushing spleen on a 70 μm filter. Before hemolysis, cells were stained with Ter119 (TER-119) and CD71 (C2) antibodies for the examination of erythroid compartments. The rest of cells were hemolyzed and stained for analyses of granulocytes, hematopoictic progenitor cells (HPCs) and hematopoietic stem cells (HSCs) by using antibodies against CD45.1 (A20), CD45.2 (104), CD11b (M1/70), Gr-1 (RB6-8C5), c-Kit (2B6), Sca-1 (D7 or E13-161.7), CD34 (RAM34 or MEC14.7), CD16/32 (93), CD48 (HM48-1) and CD150 (TC15-12F12.2). […] For cell cycle analyses, stained HSPCs were permeabilized with Cytofix/Cytoperm buffer following manufacturer's instructions (BD Biosciences) and labelled with anti-Ki67 antibody (SolA15) and Hoechst 33342. All antibodies were purchased from BioLegend, eBioscience, or BD Biosciences. Flow cytometry analyses were performed through FACS Canto II (BD Biosciences) and LSR II (BD Biosciences), and cell sorting was conducted by using FACS Aria II (BD Biosciences). Analyses were performed with the FlowJo software (TRISTAR) and illustrated with the Prism7 software (GraphPad).
Pharmacologic treatment. Furosemide was purchased from Sigma (MKCF8657), dissolved in DMSO for stock solution (50 mg/mL) and diluted in PBS solution prior to use. […] Spironolactone (SIGMA) was prepared in water bottles at 250 mg/Kg to treat recipient mice as described (Rafael-Fortney et al., Early treatment with lisinopril and spironolactone preserves cardiac and skeletal muscle in duchenne muscular dystrophy mice »; Circulation, 2011; 124:582-8). Acetozolamide was purchased from SIGMA (A6011), dissolved in PBS and solubilized with NaOH (35%) until complete dissolution of the product.

ICN1 leukemic cells = experiment: ICN1 leukemia in vivo survival; parameters: species or system mouse
Procedure: ICN1 leukemia. Non-conditioned C57BL/6J (CD45.2) recipient mice were intravenously transplanted with 1.5×10^4 ICN1 leukemic cells in 100 uL of PBS. Seven days after transplantation, when blast cells are detected in the peripheral blood, recipient mice were daily treated or not by intravenous injection of furosemide at 20 mg/Kg.

[2] = test system: CD34^+ cells from PV patients; experiment: BFU-E from CD34+ cells of PV patients treated with furosemide; type: cell-based, human; settings: 5 and 20 μg/mL of furosemide, 100% = absence of furosemide
Procedure: FIG. 9: CA1 protein expression and furosemide treatment of CD34^+ cells from PV patients. (A) CA1 protein expression in human CD34^+ cells from control and JAK2^V617F PV patients (left) (n=4) and (B) CA1 expression level normalized against GAPDH expression level (right). (C) Effects of 5 and 20 μg/mL of furosemide on the percentages of BFU-E from CD34^+ cells of PV patients (n=4). 100% is used as percentage of BFU-E in the absence of furosemide (N.T.). N) Relative percentage of JAK2^V617F Variant Allele Frequency (VAF) in the BFU-E after treatment with 5 and 20 ug/mL of furosemide. 100% is used as percentage of VAF in the BFU-E in the absence of furosemide (N.T.). Data are mean +/−s.e.m. Significance was assessed using unpaired 2-tailed t test and two way ANOVA followed by post-hoc analysis (*<0.05, **<0.01, ***<0.001, ****<0.0001).
Whole-transcriptome RNA-seq on CD34+ cell from Patients. The patients were selected for their high JAK2^V617F variant allele frequency (from 60 to 100% VAF). […] The RNA integrity (RNA Integrity Score>7.0) was checked on the Agilent 2100 Bioanalyzer (Agilent) and quantity was determined using Qubit (Invitrogen). […]

Row | Compound | therapeutic effect (blood chimerism, spleen weight) ([1]; furosemide 5 mg/Kg daily, starting two weeks after transplantation, compared with 20 mg/Kg (FIG. 8)) | survival rate ([1]; furosemide 20 mg/Kg daily intravenous, starting 2 weeks after transplantation (FIG. 4i)) | JAK2^V617F cell burden in blood ([1]; furosemide 20 mg/Kg daily intravenous, starting 2 weeks after transplantation of JAK2^V617F BM cells (FIG. 4g)) | spleen weight ([1]; furosemide 20 mg/Kg daily intravenous, starting 2 weeks after transplantation, 8 weeks later (FIG. 4h)) | PV blood parameters ([1]; furosemide 20 mg/Kg daily intravenous, starting 2 weeks after transplantation, hematocrit and red blood cells count) | JAK2^V617F LT-HSC contribution to the LT-HSC compartment ([1]; furosemide after PV establishment, before treatment (10 weeks) vs end of treatment (31 weeks) (FIG. 4m)) | survival ([1]; furosemide daily after PV establishment, starting 10 weeks after transplantation) | blood JAK2^V617F cell burden ([1]; furosemide daily after PV establishment, starting 10 weeks after transplantation (FIG. 4j)) | hematocrit ([1]; furosemide daily after PV establishment, starting 10 weeks after transplantation (FIG. 4k)) | spleen weight ([1]; furosemide daily after PV establishment, starting 10 weeks after transplantation (FIG. 4l)) | survival rate (ICN1 leukemic cells; furosemide 20 mg/Kg daily intravenous, starting 1 week after transplantation of 1.5×10^4 ICN1 leukemic cells (FIG. 7)) | in vivo leukemia progression (ICN1 leukemic cells; furosemide daily, starting 1 week after transplantation (FIG. 7)) | JAK2^V617F variant allele frequency in the BFU-E [2] | percentages of BFU-E ([2]; n=4) | PV associated symptoms ([1]; spironolactone 250 mg/Kg in water bottles, starting 2 weeks after transplantation) | survival of mice with PV ([1]; spironolactone 250 mg/Kg in water bottles, starting 2 weeks after transplantation (FIG. 5d))
1 | NS(=O)(=O)c1cc(C(=O)O)c(NCc2ccco2)cc1Cl [Furosemide, 4-chloro-2-(furan-2-ylmethylamino)-5-sulfamoylbenzoic acid] | therapeutic effect similar to the one obtained with 20 mg/Kg | improved | decreased | decreased | decreased | significant decrease | survival of the treated mice | rapid, stable and Furosemide-dependent decrease | decreased | decreased | improved survival rate is also reproduced | Slowing | decreased | decreased | – | –
2 | CC(=O)S[C@@H]1CC2=CC(=O)CC[C@]2(C)[C@H]2CC[C@@]3(C)[C@@H](CC[C@@]34CCC(=O)O4)[C@H]12 [Spironolactone] | – | – | – | – | – | – | – | – | – | – | – | – | – | – | no effect | no effect
